Earlier results in patent publication US20110008867A1, “COMPOSITIONS AND METHODS FOR THE PRODUCTION OF A COMPOUND” (GREENLIGHT BIOSCIENCES, priority 2008, published 2011).

How the values were obtained:
E. coli = conditions: in E. coli; concentration that inhibits cell growth
yeast = conditions: in yeast; concentration that inhibits cell growth

Row | Structure (SMILES) | Inhibition Concentration (E. coli) | Inhibition Concentration (yeast) [%]
1 | CCCCCO [1-pentanol] | 0.25% in E. Coli | 
2 | CCCCCCCCCCO [1-decanol] | 0.000236% in E. Coli | 
3 | CCO [Ethanol] | 5% | 15
4 | CCCCO [1-butanol] | 1.3% in E. coli | 
